For the assay, the target named is Glutamate NMDA receptor (Rattus norvegicus) (UniProt P35439+Q00959+Q00960+Q00961+Q62645+Q8VHN2+Q9R1M7). Put plainly: Antagonist activity at glycine site of NMDA receptor in rat brain cortex membrane assessed as inhibition of [3H]Mk-801 binding by liquid scintillation counting in presence of antagonist 5,7-dichlorokynurenic acid.

Calls of active or inactive are those of the source. The rule behind the calls is not given here.

Consider `C[C@@H]1CN(O)C(=O)[C@@H]1N` (relative stereo), for which the result was Active.

For the origin of these results see ChEMBL document CHEMBL1152981 (J Med Chem, 2009).
